Literature values as cited in patent publication US20090062268A1, “NOVEL INHIBITORS OF POLY(ADP-RIBOSE)POLYMERASE (PARP)” (LEAD THERAPEUTICS, INC., priority 2007, published 2009).
Like-named read-outs stand apart in the source and are kept apart here.

Key:
[1] = test system: BRCA2-deficient cell line V-C8; conditions: BRCA2-deficient V-C8 compared with the BRCA2 wild type control
PARP-1 = PARP-1 (Homo sapiens, UniProt P09874); conditions: Farmer et al., Nature 2005
CAPAN-1 cells = CAPAN-1 cells in DMEM with FCS (20% v/v), glutamine and antibiotics

Sequence of PARP-1 (P09874 whole entry, species assumed): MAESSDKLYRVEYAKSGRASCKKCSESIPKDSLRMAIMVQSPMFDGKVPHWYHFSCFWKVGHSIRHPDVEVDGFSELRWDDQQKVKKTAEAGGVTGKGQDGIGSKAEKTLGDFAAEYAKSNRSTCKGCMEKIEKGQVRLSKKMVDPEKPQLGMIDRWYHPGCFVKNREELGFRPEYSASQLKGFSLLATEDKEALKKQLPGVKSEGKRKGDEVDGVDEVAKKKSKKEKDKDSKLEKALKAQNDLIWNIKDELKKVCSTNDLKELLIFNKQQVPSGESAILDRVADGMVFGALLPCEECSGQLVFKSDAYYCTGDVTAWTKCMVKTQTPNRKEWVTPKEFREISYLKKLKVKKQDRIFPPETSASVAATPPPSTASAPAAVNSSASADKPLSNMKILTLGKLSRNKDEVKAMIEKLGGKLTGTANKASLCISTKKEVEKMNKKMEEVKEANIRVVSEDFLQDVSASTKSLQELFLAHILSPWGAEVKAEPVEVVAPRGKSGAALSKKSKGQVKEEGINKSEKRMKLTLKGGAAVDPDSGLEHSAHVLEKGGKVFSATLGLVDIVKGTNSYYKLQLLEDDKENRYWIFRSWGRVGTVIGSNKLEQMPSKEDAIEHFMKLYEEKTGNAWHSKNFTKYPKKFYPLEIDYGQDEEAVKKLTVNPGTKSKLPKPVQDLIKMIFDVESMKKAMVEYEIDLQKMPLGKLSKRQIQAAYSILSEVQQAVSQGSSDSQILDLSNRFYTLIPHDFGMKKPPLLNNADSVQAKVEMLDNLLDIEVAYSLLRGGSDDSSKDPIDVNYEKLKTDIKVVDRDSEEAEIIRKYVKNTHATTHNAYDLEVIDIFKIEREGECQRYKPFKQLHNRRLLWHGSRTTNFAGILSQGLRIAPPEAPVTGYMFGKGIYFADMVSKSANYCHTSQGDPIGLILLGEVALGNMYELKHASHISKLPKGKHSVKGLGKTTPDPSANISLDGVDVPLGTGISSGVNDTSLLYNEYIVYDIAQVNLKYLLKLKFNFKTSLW

| SMILES | sensitivity in clonogenic survival assay [1] | Ki (PARP-1; PARP-1 inhibitor) | in vivo efficacy, tumor growth (BRCA2-deficient tumors) | sensitivity to PARP inhibition in clonogenic survival assay (CAPAN-1 cells) | Ki (PARP-1; moderately potent PARP-1 inhibitor) |
| --- | --- | --- | --- | --- | --- |
| CN(C)Cc1ccc(-c2nc3cccc4c3n2CCNC4=O)cc1 [AG14361] | exhibited sensitivity | 0.005 µM | – | – | – |
| O=C1CCC(=O)N1c1cc(Cc2n[nH]c(=O)c3ccccc23)ccc1F [KU0058684] | – | – | in vivo efficacy in blocking the growth of BRCA2-deficient tumors | showing sensitivity | – |
| Cc1nc2c(O)cccc2c(=O)[nH]1 [NU1025] | exhibited sensitivity | – | – | – | 0.05 µM |
